Laboratory results reported in ChEMBL document CHEMBL1129469, “Nonpeptide angiotensin II receptor antagonists: the next generation in antihypertensive therapy” (J Med Chem, 1996).
Numbering of substitutions follows the chain as printed. Each block holds one compound with its values, some of them ahead of it.

Legend:
[1] = biological target: T1, Type-1 angiotensin II receptor (Cavia porcellus, UniProt Q9WV26); test: In vitro antagonistic potency against Angiotensin II receptor, type 1 in guinea pig adrenal membrane; assay type: functional, cell membranes
T1 sequence (Q9WV26 whole entry): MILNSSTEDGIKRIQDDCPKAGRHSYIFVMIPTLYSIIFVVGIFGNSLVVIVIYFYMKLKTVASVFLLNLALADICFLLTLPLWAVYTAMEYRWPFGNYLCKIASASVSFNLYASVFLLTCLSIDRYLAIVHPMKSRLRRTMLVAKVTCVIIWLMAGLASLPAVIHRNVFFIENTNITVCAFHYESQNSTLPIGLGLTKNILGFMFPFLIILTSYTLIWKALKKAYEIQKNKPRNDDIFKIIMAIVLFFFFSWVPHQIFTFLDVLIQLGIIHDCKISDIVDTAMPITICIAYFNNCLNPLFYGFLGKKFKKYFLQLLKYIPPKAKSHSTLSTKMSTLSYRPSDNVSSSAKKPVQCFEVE

Rattus norvegicus [2] = organism: Rattus norvegicus; test: Effective dose required for lowering blood pressure in renal hypertensive rats (RHR); assay type: functional
Rattus norvegicus [3] = test: Oral effective dose required for inhibition of pressor response in conscious rats; assay type: functional
[4] = biological target: T2, Type-1 angiotensin II receptor (Oryctolagus cuniculus, UniProt P34976); test: Binding affinity was evaluated towards Angiotensin II receptor, type 1 in rabbit aorta; assay type: tissue-based
T2 sequence (P34976 whole entry): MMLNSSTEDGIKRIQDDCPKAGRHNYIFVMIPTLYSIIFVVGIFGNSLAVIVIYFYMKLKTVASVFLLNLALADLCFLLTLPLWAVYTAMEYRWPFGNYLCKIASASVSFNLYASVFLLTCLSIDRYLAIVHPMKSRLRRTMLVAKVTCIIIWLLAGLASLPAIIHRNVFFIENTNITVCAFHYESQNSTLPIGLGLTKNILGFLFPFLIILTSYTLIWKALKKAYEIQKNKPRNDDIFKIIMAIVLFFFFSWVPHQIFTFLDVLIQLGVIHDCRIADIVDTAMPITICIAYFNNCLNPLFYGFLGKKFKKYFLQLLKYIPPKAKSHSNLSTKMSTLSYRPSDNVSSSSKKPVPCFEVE

Oryctolagus cuniculus [5] = organism: Oryctolagus cuniculus; test: Compound was tested for its antagonistic activity against angiotensin II-induced contractions in rabbit aorta; assay type: functional
Oryctolagus cuniculus [6] = organism: Oryctolagus cuniculus; test: PD' 2 value was evaluated for antagonistic activity in rabbit aorta; assay type: functional
Rattus norvegicus [7] = organism: Rattus norvegicus; test: Oral effective dose required for inhibition of Ang II pressor response in rats; assay type: functional
Rattus norvegicus [8] = test: Effective dose required for inhibition of Ang II-induced pressor response in conscious rats; assay type: functional
Rattus norvegicus [9] = test: Percent inhibition was evaluated to inhibit Ang II pressor response in conscious rats at oral dose 1 mg/kg; assay type: functional
HASMC = test: Inhibitory activity against Ang II-induced proliferation of human aortic smooth muscle cells in a dose dependent manner; assay type: functional, cell-based
Rattus norvegicus [10] = test: Intravenous effective dose required for lowering blood pressure in renal hypertensive rats (RHR); assay type: functional
Rattus norvegicus [11] = organism: Rattus norvegicus; test: Oral effective dose required for lowering blood pressure in renal hypertensive rats (RHR); assay type: functional
[12] = biological target: T3, Angiotensin II receptor (AT-1) type-1 (Rattus norvegicus, UniProt P29089+P25095); test: In vitro antagonistic potency against Angiotensin II receptor, type 1 in rat liver; assay type: functional, tissue-based
T3 sequence (P29089 whole entry): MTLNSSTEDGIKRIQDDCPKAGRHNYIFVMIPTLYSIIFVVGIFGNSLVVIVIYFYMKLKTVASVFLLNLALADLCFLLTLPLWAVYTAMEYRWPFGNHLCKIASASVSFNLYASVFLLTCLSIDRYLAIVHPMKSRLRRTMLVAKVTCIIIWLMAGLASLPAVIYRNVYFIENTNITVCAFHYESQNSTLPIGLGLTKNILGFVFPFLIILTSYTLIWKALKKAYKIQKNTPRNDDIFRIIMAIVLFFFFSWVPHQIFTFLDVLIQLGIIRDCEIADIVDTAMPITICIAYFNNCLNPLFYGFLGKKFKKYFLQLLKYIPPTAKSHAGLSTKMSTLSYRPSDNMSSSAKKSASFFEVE
T3 sequence (P25095 whole entry): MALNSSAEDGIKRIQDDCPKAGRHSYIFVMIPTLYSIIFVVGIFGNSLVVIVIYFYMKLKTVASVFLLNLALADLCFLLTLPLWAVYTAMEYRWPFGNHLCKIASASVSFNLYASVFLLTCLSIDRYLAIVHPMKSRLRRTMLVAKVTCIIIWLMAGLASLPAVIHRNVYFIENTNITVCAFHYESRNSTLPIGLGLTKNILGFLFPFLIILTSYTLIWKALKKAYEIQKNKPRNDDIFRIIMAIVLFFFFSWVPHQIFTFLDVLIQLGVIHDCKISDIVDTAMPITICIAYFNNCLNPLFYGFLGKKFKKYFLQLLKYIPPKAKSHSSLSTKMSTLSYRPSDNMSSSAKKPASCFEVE

Rattus norvegicus [13] = organism: Rattus norvegicus; test: Oral effective dose required for lowering blood pressure in spontaneous hypertensive rats (SHR); assay type: functional
[14] = biological target: T3, Angiotensin II receptor (AT-1) type-1; test: In vitro antagonistic potency against Angiotensin II receptor, type 1 in rat adrenal cortex; assay type: functional, tissue-based
Rattus norvegicus [15] = test: Intravenous effective dose against Ang II-induced pressor responses in conscious rats; assay type: functional
[16] = biological target: T4, Type-2 angiotensin II receptor (Homo sapiens, UniProt P50052); test: Inhibition of Angiotensin II receptor, type 2
T4 sequence (P50052 whole entry): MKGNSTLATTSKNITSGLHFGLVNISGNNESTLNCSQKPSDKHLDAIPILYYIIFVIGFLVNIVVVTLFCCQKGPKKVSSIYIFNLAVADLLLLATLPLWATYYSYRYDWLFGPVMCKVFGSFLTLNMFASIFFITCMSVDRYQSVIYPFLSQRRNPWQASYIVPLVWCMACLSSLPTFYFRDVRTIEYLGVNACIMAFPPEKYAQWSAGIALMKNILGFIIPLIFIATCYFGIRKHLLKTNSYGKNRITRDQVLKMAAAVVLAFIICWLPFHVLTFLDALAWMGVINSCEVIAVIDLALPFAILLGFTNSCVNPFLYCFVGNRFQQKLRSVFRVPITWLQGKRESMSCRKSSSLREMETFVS

[17] = biological target: T5, Type-1 angiotensin II receptor (Homo sapiens, UniProt P30556); test: Inhibition of Angiotensin II receptor, type 1
T5 sequence (P30556 whole entry): T2 sequence (P34976 whole entry) with M2I, A49V, V254I, V270I, H272R, K311R, S349T, V353A

Rattus norvegicus [18] = test: Percent inhibition was evaluated against Ang II pressor in rats at dose 3 mg/kg, by oral administration; assay type: functional

IC50 [1]: 30 nM
Structure (SMILES): CCc1cc(OCc2ccc(-c3ccccc3-c3nnn[nH]3)cc2)c2ccccc2n1

Ki [4]: 0.9 nM
Structure (SMILES): CCCCc1nc(C)n(Cc2sccc2C(=O)OC)c(=O)c1Cc1ccc(-c2ccccc2-c2nnn[nH]2)cc1
pKb (Oryctolagus cuniculus [5]): 9.5

IC50 [1]: 3.8 nM
Structure (SMILES): CCc1cc2c(c(CC)n1)CCC(=O)N2Cc1ccc(-c2ccccc2-c2nnn[nH]2)cc1
ED50 (Rattus norvegicus [8]): 0.19 mg/kg

Log Ki [12]: -8.7
Structure (SMILES): COc1c(OCc2ccc(-c3ccccc3-c3nn[nH]n3)cc2)cc(C)nc1C
ED50 (Rattus norvegicus [13]): 0.48 mg/kg
ED50 (Rattus norvegicus [11]): 2.5 mg/kg

Ki [14]: 800 nM
Structure (SMILES): CCCCc1nc(Cl)c(C(=O)O)n1Cc1cccc2c1ccn2-c1ccccc1-c1nn[nH]n1
Kb (Oryctolagus cuniculus [5]): 0.068 nM
ED50 (Rattus norvegicus [15]): 0.22 µmol/kg

IC50 [16]: 180 nM
IC50 [17]: 15 nM
Structure (SMILES): CCCCCN(Cc1ccc(-c2ccccc2-c2nn[nH]n2)cc1)C(=O)N1CCN(C(=O)N(c2ccccc2)c2ccccc2)[C@H](C(=O)O)C1
inhibition in vivo at 3 mg/kg (Rattus norvegicus [18]): 80%

The next lines start with the compound.

Structure (SMILES): CCCCc1nc(Cl)c(CC(=O)OC)n1Cc1ccc(NC(=O)c2ccccc2C(=O)O)cc1
ED30 (Rattus norvegicus [2]): 11 mg/kg

Structure (SMILES): CCCCc1nc(Cl)c(C(=O)OC(C)OC(=O)OCC)n1Cc1ccc(-c2ccccc2-c2nn[nH]n2)cc1 (centres undefined)
ED50 (Rattus norvegicus [3]): 0.5 mg/kg

Structure (SMILES): CCc1nc2c(n1Cc1ccc(-c3ccccc3-c3nn[nH]n3)cc1)/C(=C/C(=O)O)CCCC2
PD' 2 (Oryctolagus cuniculus [6]): 9.91

Structure (SMILES): CCOc1nc2cccc(C(=O)OC(C)OC(=O)OC3CCCCC3)c2n1Cc1ccc(-c2ccccc2-c2nn[nH]n2)cc1 (centres undefined) [CANDESARTAN CILEXETIL]
ED50 (Rattus norvegicus [7]): 0.069 mg/kg

Structure (SMILES): CCCCc1nc2ccc(NC(=O)N(C)C(C)C)cc2c(=O)n1Cc1ccc(-c2ccccc2-c2nn[nH]n2)cc1
inhibition in vivo at 1 mg/kg (Rattus norvegicus [9]): 84%

Structure (SMILES): CCCCc1nc(Cl)c(CO)n1Cc1ccc(-c2ccccc2-c2nnn[nH]2)cc1 [LOSARTAN]
IC50 (HASMC): 0.71 nM
Kb (Oryctolagus cuniculus [5]): 22 nM
pKB (Oryctolagus cuniculus [5]): 8.2
ED30 (Rattus norvegicus [10]): 0.78 mg/kg
ED30 (Rattus norvegicus [11]): 0.59 mg/kg
